According to US20050009886A1, “1,4-Dihydropyridine derivative with a guaiacoxypropanolamine and/or phenoxypropanolamine moiety” (priority 1998, published 2005):

Tests used:
[1] = Heart rate and blood pressure in living rat; type: in vivo, Wistar rats
Excerpt: Male Wistar rats, weighing 200˜300 g were abdominal anaesthetized with pentobarbital sodium. Tracheal was cannulated to maintain normal respiration. Polyethylene tube was inserted into the left femoral vein to facilitate drug administration. A 3-way stopcock was used, with one end connected to a syringe for drug injection, while the other end was connected to the syringe filled with physiological saline. The latter was used to prevent residual drugs in the polyethylene tube after injection, which would affect experimental accuracy.
The right femoral artery was also inserted with polyethylene, and a 3-way stopcock was used too, where one end was connected to heparin solution to prevent embolism. The other end was connected to a Disposable Diaphragm Dome, TA1019, and linked to a transducer. Through an amplifier, a recorder recorded the overall and average arterial pressure; heart rate to evaluate the effect of drug on blood pressure and heart rate.

[2] = molecular target: T1, β-adrenoreceptor (β1) (Rattus norvegicus, UniProt P18090); experiment: Isolated right atrium, L-isoproterenol-induced heart rate increase (pA2); design: species or system Wistar rat; details: for β1 Value of pA2 Right Atrium: vs L-isoproterenol, Schild plot
T1 construct: The right and left atria were then separated; from tissue; host or cells: isolated rat right atrium (spontaneously beating) and left atrium (electrically paced)
T1 sequence (P18090 whole entry): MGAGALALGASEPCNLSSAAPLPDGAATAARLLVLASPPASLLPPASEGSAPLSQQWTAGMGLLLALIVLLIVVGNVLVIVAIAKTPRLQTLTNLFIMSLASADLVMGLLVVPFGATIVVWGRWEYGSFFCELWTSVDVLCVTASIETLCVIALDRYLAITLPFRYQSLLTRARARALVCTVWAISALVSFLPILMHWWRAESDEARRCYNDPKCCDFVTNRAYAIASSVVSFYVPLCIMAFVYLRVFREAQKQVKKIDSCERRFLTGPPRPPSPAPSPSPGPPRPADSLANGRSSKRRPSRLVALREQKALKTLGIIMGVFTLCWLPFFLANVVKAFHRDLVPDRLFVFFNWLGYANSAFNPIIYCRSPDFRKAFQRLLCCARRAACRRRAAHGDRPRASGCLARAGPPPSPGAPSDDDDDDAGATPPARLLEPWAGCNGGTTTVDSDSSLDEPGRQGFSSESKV
Description: The right and left atria were then separated. The spontaneously-beating right atria was clipped on both end by heart shaped clips, where one end was fixed at the bottom of 10 ml of tissue bath made of physiological saline solution, and temperature maintained at 37° C. The other end of the atria was connected to a force transducer, and isometric contractions and beating rate of the right atria were recorded by COULBOURN AT-High-Speed VideoFigure. After the samples were given 250 mg of contractions and reach equilibrium the following experiments were carried out: • (a) β-adrenoceptor blocking action
Cumulative administration interval was when the previous concentration reached its greatest effect, the next concentration would be immediately given.
The equation is as follows: pA2=−Log KB Log(DRADJ−1)=nlog[B]−LogKB [formula]
[B] Test compound concentration in moles • KB: equilibrium dissociation constant • n: value of slope DR: test EC50 divided by control EC50 • CF: EC50 of second or third control groups divided by EC50 of first control group (c) Effect of Compound on the Increase of Spontaneous Beating in Right Atrium Caused by CaCl2

[3] = molecular target: T1, β-adrenoreceptor (β1); experiment: Isolated left atrium, L-isoproterenol-induced contractility increase (pA2); design: species or system Wistar rat; details: for β1 Value of pA2 Left Atrium: vs L-isoproterenol, electrically stimulated
Description: The inspontaneously-beating left atrial tissue was obtained from rat's isolated right atrial tissue experiments. […] The contraction rate was 1 Hz and the resting tension 0.5 gm. After 60 minutes of equilibration, the following experiments were performed:
(a) Completion of cumulative concentration-response curve: similar to experimental method on isolated right atrium;
(b) Calculation of pA2 value: similar to calculation method on isolated right atrium.

[4] = molecular target: T2, β2 (Cavia porcellus, UniProt Q8K4Z4); experiment: Guinea pig's isolated tracheal, L-isoproterenol relaxation of carbachol contraction (pA2); details: for β2 Value of pA2 Tracheal: vs L-isoproterenol, carbachol 10^−6 M contraction
T2 construct: a portion of tracheal approximately 4 cm long was removed; from tissue; host or cells: isolated trachea of reserpine-pretreated guinea pigs
T2 sequence (Q8K4Z4 whole entry): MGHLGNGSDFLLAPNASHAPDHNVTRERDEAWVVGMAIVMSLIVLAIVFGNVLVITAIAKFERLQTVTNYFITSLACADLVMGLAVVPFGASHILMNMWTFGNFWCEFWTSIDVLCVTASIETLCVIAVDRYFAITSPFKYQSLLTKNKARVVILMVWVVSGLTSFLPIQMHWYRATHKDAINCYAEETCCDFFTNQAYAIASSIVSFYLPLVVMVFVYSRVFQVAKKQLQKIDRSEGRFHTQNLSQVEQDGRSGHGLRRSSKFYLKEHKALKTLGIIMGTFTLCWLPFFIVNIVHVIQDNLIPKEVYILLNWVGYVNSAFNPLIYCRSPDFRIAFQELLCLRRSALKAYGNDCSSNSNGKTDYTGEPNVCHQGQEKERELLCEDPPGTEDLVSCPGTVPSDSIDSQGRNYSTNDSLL
Description: Guinea pigs of weight between 300˜500 gm were used. […] After the guinea pigs were sacrificed, a slit was made along the neck, and a portion of tracheal approximately 4 cm long was removed. […] The two ends of the tracheal were clamped with frog-heart shaped clamps, one end was fixed at the bottom of tissue bath filled with 20 ml of Kreb's solution, maintained at 37° C., while the other end was connected to a force transducer. Through a COULBOURN AT-High-Speed Videograph, long isometric contractions were recorded. After the sample was given 1.5 gm of tension and equilibrated, the following experiments were performed:
Then the tracheal was repeatedly washed with Kreb's solution for 20 minutes and 10−6 M of carbochol was added to cause contraction in the guinea pig's tracheal. […] This is the test group.
(b) Calculation of pA2: similar to the calculation method for isolated right atrium experiment.

[5] = molecular target: T3, atrial β 1-receptor (Rattus norvegicus, UniProt P18090); type: binding, Wistar rat; details: 25° C., 60 minutes
T3 construct: The heart and lung of rat were removed and placed in cold Tris buffer; from tissue; host or cells: membrane preparation from rat atria
T3 sequence (P18090 whole entry): as the sequence (P18090 whole entry) above

[6] = molecular target: T4, lung β 2-receptor (Rattus norvegicus, UniProt P10608); type: binding, Wistar rat; details: 25° C., 60 minutes
T4 construct: The heart and lung of rat were removed and placed in cold Tris buffer; from tissue; host or cells: membrane preparation from rat lung
T4 sequence (P10608 whole entry): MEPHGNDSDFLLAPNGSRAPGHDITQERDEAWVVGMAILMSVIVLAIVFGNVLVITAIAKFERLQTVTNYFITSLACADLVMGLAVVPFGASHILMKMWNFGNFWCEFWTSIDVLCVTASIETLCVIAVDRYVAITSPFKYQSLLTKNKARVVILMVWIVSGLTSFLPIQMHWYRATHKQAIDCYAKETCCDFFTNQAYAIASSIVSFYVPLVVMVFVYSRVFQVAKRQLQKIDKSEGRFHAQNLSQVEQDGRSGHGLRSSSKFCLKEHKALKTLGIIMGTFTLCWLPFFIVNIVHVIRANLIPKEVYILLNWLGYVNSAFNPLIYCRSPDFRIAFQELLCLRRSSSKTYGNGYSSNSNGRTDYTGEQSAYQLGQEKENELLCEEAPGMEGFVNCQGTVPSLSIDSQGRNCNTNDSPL

[7] = system: isolated atria; experiment: Direct effect (intrinsic sympathomimetic activity) on reserpine pretreated isolated atria; design: species or system Wistar rat
Description: Wistar rats of weight between 200˜300 gm were used. 18˜24 hours before the experiment, 5 mg/kg of reserpine was injected via abdominal cavity to remove all endogenous catecholamines. Prior experiment, Wistar rats were sacrificed, the heart was immediately removed and placed in Kreb's solution aerated with air mixture and maintained at room temperature. The right and left atria were carefully separated.

[8] = molecular target: T5, β2-adrenoceptor (Cavia porcellus, UniProt Q8K4Z4); experiment: Direct effect (intrinsic sympathomimetic activity) on reserpine pretreated isolated tracheal; design: species or system guinea pig
T5 construct: a portion of tracheal approximately 4 cm long was removed; from tissue; host or cells: isolated trachea of reserpine-pretreated guinea pigs
T5 sequence (Q8K4Z4 whole entry): as the sequence (Q8K4Z4 whole entry) above
Description: 18˜24 hours before the experiment, 5 mg/kg of reserpine was injected via abdominal cavity to remove all endogenous catecholamines. Prior experiment, guinea pigs were sacrificed, the tracheal was immediately removed and placed in Kreb's solution aerated with air mixture and maintained at room temperature of 22˜25° C. […] Then the tissue was repeatedly washed with Kreb's solution.

[9] = system: right atrium; details: 10^−7, 10^−6, and 10^−5M; CaCl2 3.0, 6.0, 9.0 mM
Description: The right atrium of the rats was allowed to equilibrate in Kreb's solution for at least 60 minutes. When the spontaneous beating rate had reached a certain stability, CaCl2 of different concentrations (3.0, 6.0, and 9.0 mM) were cumulatively administered, and the changes in the spontaneous beating of right atrium were observed. […] 30 minutes later, different concentrations (3.0, 6.0, and 9.0 mM) were cumulatively administered, and the changes in the spontaneous beating of right atrium were observed again.

[10] = system: Calcium; experiment: Calcium antagonism (pKCa^−1, Table 2)
[11] = molecular target: cerebral cortex calcium ion receptors; details: 25° C., 60 minutes
[12] = 1 mg/kg via femoral vein, anaesthetized rat
[13] = intravenous 0.1-2.0 mg/kg, normotensive rats

- block of heart contractility increment effect of L-isoproterenol ([3]; left atrium, 10^−6, 10^−5, and 10^−6 M as printed): could competitively block
- β1 Left Atrium (Slope) ([3]; slope of Schild regression): (0.85 ± 0.02)
- β1 Value of pA2 Left Atrium [3]: 6.91 ± 0.26
- β1 Value of pA2 Left Atrium ([3]; listed as compound 1): 6.91±0.26
- block of the tracheal effect of L-isoproterenol ([4]; 10^−6, 10^−5, and 10^−6 M as printed): could competitively block
- β2 Tracheal (slope) ([4]; slope of Schild regression): (0.84 ± 0.09)
- β2 Value of pA2 Tracheal [4]: 7.09 ± 0.54
- β2 Value of pA2 Tracheal ([4]; listed as compound 1): 7.09±0.54
- [^3H] CGP-12177 (β1) pKi [5]: 6.61 ± 0.46
- [^3H] CGP-12177 (β2) pKi [6]: 6.20 ± 0.55
- [^3H]nitrendipine Ca^2+ PKi [11]: 7.86 ± 0.38
Compound: COC(=O)C1=C(C)NC(C)=C(C(=O)OC)C1c1ccc(OCC(O)CNC(C)(C)C)c(OC)c1 (stereo not drawn) [Compound 1]
- Lowering of Blood Pressure [1, 12]: 70 ± 3 mmHg
- Reduction of Heart Rate [1, 12]: 30 ± 2 beats/min
- effect on heart rate ([1]; intravenous 0.5 mg/kg): a decrease in heart rate
- duration of blood pressure lowering effect [1, 13]: approximately 1 hour
- effect on blood pressure and heart rate [1, 13]: continuous dose-dependent blood pressure lowering effect without increasing heart rate
- Ratio of β1 and Calcium Antagonism [2]: 0.12
- effect on right atrium relative to tracheal (selectivity ratio of β1 type adrenoceptor) ([2]; from average pA2 difference between right atrium and tracheal): 1.32 ×
- β1/β2 ([2]; from pA2 difference right atrium vs tracheal): 1.32
- block of heart rate increment effect of L-isoproterenol ([2]; right atrium, 10^−6, 10^−5, and 10^−6 M as printed): could competitively block
- β1 Right Atrium (Slope) ([2]; slope of Schild regression): (0.94 ± 0.18)
- β1 Value of pA2 Right Atrium [2]: 7.21 ± 0.32
- β1 Value of pA2 Right Atrium ([2]; listed as compound 1): 7.21±0.32
- selectivity on the type of β-adrenoceptor ([2]; β1:β2): non-selective
- direct effect on right atrium beating rate and left atrium isometric contractions ([7]; cumulative administration, reserpine pretreated): could not increase the beating rate and isometric contractions
- concentration with blocking effect on beating rate and isometric contractions ([7]; reserpine pretreated atria): ≥ 10^−5 M
- tracheal relaxation after pretreatment with ICI118, 551 ([8]; ICI 118, 551 10^−8, 10^−9, 10^−10M for 30 minutes (nifedipine: 10^−8 M)): concentration-dependently shifting parallel to the right
- direct tracheal relaxation effect ([8]; cumulative 10^−10˜3×10^−6 M, reserpine pretreated tracheal): dose-dependant tracheal relaxation effect
- effect on increased atrial beating rate induced by CaCl2 [9]: blocked
- Calcium Antagonism PKCa^−1 [10]: 7.82 ± 0.49
